Source: ChEMBL document CHEMBL1201862, “PubChem BioAssay data set” (2004)
Active and inactive are the calls of the source.

Test system: not listed separately
Assay: alpha-synuclein stem-loop luciferase translation blockers – H4 neuroglioma cells, luminescence, confirmation (AID 1988)
Format: functional, cell-based
Conditions: not given
With `CCC(C)Nc1nc(N)c([N+](=O)[O-])c(Nc2cc(OC)ccc2OC)n1` (centres undefined) the EC50 was 13.3 µM (active). With `CC1(C)CC(=O)C=C(Nc2ccc(Br)cn2)C1` the EC50 was > 120 µM (not active). With `N=c1nc(N)nc2n1NC(c1ccc(F)cc1)=CS2` the EC50 was 13.7 µM (active).

Test system: Streptococcus sp. 'group A'
Assay: Streptococcus pyogenes SK(-)GAS viability under kanamycin – luminescence, BacTiterGlo, confirmation, counter-screen for streptokinase expression inhibitor project, dose response (AID 1900)
Format: functional, organism-based
Conditions: not given
With `CCC(C)Nc1nc(N)c([N+](=O)[O-])c(Nc2cc(OC)ccc2OC)n1` (centres undefined) the EC50 was 2.35 µM (active).

Target: Cytochrome P450 3A4 (Homo sapiens, UniProt P08684);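 also: CYP3A4 tested as one member of a cytochrome P450 panel screen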
Sequence (P08684 whole entry): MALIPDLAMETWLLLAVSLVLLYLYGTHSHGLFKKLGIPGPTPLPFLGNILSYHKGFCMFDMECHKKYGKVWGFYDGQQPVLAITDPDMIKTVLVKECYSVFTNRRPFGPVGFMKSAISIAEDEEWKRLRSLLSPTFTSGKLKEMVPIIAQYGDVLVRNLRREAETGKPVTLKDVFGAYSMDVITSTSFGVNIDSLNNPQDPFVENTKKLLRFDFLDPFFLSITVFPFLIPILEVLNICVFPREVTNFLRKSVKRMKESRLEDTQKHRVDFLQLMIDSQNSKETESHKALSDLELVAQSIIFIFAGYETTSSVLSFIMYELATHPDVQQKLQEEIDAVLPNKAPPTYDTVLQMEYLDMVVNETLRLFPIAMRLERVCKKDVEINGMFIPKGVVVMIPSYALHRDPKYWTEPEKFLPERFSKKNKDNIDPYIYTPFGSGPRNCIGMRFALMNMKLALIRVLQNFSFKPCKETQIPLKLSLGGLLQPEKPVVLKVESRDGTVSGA
Conditions: not given
With `CC(C)(C)N=C(S)Nc1ccc(Nc2ccccc2)cc1` the AC50 was 11.2 µM (inconclusive).

Test system: INS1
Assay: INS-1E survival protection against cytokine death – cell-based, luminescence, retest, dose response (AID 449756);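 also: cell death triggered by IL-1 beta plus TNF-alpha plus IFN-gamma mixture; protective hits raise ATP signal compared with cytokine alone wells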
Format: functional
Conditions: Rattus norvegicus, INS1
For `COc1ccc(C(=O)NCC(=O)N/N=C/c2ccc([N+](=O)[O-])s2)cc1OC`, the AC50 was 8.94 µM (active). With `CCCCCCc1ccc(N2C[C@H](Cc3ccccc3)[C@@H](CC(=O)Nc3ccccc3)C2=O)cc1` the AC50 was 14.2 µM (active). In the case of `O=[N+]([O-])c1cc(C(F)(F)F)ccc1NCCCCNS(=O)(=O)c1ccc(Cl)cc1`, the AC50 is reported as 6.5 µM (active). In the case of `COc1cccc(/C=N/NC(=O)c2c(-c3ccccc3)noc2C)c1O`, the AC50 is reported as 2.5 µM (active). In the case of `O=C1C=C(c2ccc(F)cc2OCc2ccccc2)C[C@@H](c2ccc(Cl)cc2)C1`, the AC50 is reported as 4.89 µM (active). In the case of `C/C(=N\Nc1nc(C)cc(-c2ccccc2)n1)c1ccc(F)cc1`, the AC50 is reported as 3.13 µM (active).

Test system: Streptococcus
Assay: GAS UMAA2166 growth inhibition – luminescence, BacTiterGlo, counter-screen for streptokinase expression inhibitor project, dose response (AID 1915);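 also: potency for reduction of bacterial viability or growth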
Format: functional, organism-based
Conditions: not given
In the case of `CCC(C)Nc1nc(N)c([N+](=O)[O-])c(Nc2cc(OC)ccc2OC)n1` (centres undefined), the EC50 is reported as 11.9 µM (active).

Test system: not listed separately
Assay: Luminescence Cell-Based Dose Response HTS to Identify Inhibitors of 5'UTR Stem-Loop Driven Prion Protein mRNA Translation in H4 Neuroglioblastoma Cells. [Related pubchem assays: 1827 (Project Summary), 1813 (Primary HTS)]
Format: functional
Conditions: not given
In the case of `CCC(C)Nc1nc(N)c([N+](=O)[O-])c(Nc2cc(OC)ccc2OC)n1` (centres undefined), the EC50 is reported as 12.8 µM (active). In the case of `CC1(C)CC(=O)C=C(Nc2ccc(Br)cn2)C1`, the EC50 is reported as > 120 µM (not active). With `N=c1nc(N)nc2n1NC(c1ccc(F)cc1)=CS2` the EC50 was > 120 µM (not active).

Test system: not listed separately
Assay: NIH3T3 cell viability loss – ATP luminescence, mouse fibroblasts, counter-screen, dose response (AID 2010);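 also: cells exposed to compound for about 90 hours before reading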
Format: functional, cell-based
Conditions: not given
With `COc1ccc(C(=O)NCC(=O)N/N=C/c2ccc([N+](=O)[O-])s2)cc1OC` the EC50 was > 60 µM (not active).

Target: T1, Corticotropin-releasing factor receptor 2/Corticotropin-releasing factor-binding protein (Homo sapiens, UniProt P24387+Q13324)
T1 sequence (Q13324 whole entry): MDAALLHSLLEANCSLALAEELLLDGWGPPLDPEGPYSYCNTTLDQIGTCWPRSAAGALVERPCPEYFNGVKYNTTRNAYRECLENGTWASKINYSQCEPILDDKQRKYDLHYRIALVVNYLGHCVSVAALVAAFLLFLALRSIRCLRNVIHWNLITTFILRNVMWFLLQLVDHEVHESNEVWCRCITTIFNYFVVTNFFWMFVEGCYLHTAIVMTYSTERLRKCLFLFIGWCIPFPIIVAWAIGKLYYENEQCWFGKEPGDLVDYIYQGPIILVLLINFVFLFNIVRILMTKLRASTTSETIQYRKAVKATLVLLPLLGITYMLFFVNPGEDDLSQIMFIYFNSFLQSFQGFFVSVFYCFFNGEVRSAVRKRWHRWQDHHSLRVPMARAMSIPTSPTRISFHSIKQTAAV
T1 sequence (P24387 whole entry): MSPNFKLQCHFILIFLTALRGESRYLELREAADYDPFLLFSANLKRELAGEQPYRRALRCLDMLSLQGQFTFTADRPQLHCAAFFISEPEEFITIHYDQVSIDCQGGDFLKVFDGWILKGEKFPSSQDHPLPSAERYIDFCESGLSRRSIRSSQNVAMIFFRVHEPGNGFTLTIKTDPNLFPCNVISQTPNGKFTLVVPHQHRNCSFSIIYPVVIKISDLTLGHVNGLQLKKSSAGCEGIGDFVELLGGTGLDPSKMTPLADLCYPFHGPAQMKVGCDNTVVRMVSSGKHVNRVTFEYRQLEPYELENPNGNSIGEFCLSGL
Assay: Dose Response confirmation of uHTS hits for small molecule antagonists of the CRF-binding protein and CRF-R2 receptor complex.
Format: functional
Conditions: read-out: IC50_Mean
In the case of `COc1ccccc1N1CCN(C(=O)/C=C/c2cccs2)CC1`, the IC50 is reported as > 47.1 µM (inactive). With `CNc1nc(NC)nc(NNC(=O)c2ccccc2)n1` the IC50 was > 47.1 µM (inactive). With `Cc1ccccc1NS(=O)(=O)c1ccc(C(=O)N(C)CC(=O)Nc2ccccc2Br)cc1` the IC50 was > 47.1 µM (inactive). For `Cc1ccc(C)c(NC(S)=NCCCN2CCOCC2)c1`, the IC50 was > 47.1 µM (inactive). For `CCn1c(C)nc2cc(C(=O)NN=Cc3ccc([N+](=O)[O-])cc3)ccc21`, the IC50 was > 47.1 µM (inactive). In the case of `CC(NC(=O)COC(=O)C12CC3CC(CC(Br)(C3)C1)C2)c1ccccc1` (centres undefined), the IC50 is reported as > 47.1 µM (inactive). In the case of `C/C(=N\NC(=O)c1ccc(NS(=O)(=O)c2cccs2)cc1)c1ccccc1`, the IC50 is reported as > 47.1 µM (inactive). In the case of `O=C1CC(Nc2cc(O)nc(O)n2)C(=O)N1c1ccccc1Cl` (centres undefined), the IC50 is reported as > 47.1 µM (inactive). With `C[C@H](NC(=O)[C@@H]1Cc2ccccc2CN1)C(=O)NC1CCCCC1` the IC50 was > 47.1 µM (inactive). For `O=C(c1ccc2snnc2c1)N1CCN(c2ccccn2)CC1`, the IC50 was > 47.1 µM (inactive). With `Cc1ccc(C)c(C(C)NC(=O)c2ccccc2Br)c1` (centres undefined) the IC50 was > 47.1 µM (inactive).

Test system: not listed separately
Assay: luciferase reporter signal suppression in cells – H4 neuroglioma cells, luminescence, dose response (AID 1990)
Format: functional, cell-based
Conditions: not given
With `CCC(C)Nc1nc(N)c([N+](=O)[O-])c(Nc2cc(OC)ccc2OC)n1` (centres undefined) the EC50 was 10.7 µM (active). With `CC1(C)CC(=O)C=C(Nc2ccc(Br)cn2)C1` the EC50 was > 120 µM (not active). With `N=c1nc(N)nc2n1NC(c1ccc(F)cc1)=CS2` the EC50 was > 120 µM (not active).

Target: T2, Rac GTPase-activating protein 1 (Homo sapiens, UniProt Q9H0H5)
T2 sequence (Q9H0H5 whole entry): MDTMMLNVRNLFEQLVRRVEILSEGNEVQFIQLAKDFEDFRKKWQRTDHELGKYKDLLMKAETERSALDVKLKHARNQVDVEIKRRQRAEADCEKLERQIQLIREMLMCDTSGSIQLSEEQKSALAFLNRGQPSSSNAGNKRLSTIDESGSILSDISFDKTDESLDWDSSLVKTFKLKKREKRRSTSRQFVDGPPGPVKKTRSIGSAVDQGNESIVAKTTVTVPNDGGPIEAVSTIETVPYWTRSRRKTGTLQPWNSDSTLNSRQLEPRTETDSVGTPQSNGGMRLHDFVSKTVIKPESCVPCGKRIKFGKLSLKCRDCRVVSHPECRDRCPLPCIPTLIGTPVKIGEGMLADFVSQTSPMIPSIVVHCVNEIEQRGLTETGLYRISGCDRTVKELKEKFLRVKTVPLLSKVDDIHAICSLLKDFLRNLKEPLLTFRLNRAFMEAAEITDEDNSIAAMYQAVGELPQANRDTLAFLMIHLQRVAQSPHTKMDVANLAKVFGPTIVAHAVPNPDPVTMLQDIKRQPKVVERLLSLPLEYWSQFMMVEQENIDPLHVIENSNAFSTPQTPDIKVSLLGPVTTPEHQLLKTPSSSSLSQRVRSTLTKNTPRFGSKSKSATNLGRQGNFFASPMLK
Assay: blockers of MgcRacGAP-driven Rac1 GTP hydrolysis – biochemical, ADP Hunter fluorescence, primary and confirmatory, confirmation (AID 624330)
Format: functional
Conditions: not given
For `CC(C)NCC(=O)Nc1c2c(nc3ccccc13)CCC2`, the IC50 was 53.2 µM (active). With `CC1(C)CC(=O)C=C(Nc2ccc(O)cc2)C1` the IC50 was 20.2 µM (active). In the case of `O=[N+]([O-])c1cccc(CN2CCN(Cc3ccco3)CC2)c1`, the IC50 is reported as 98.5 µM (active). In the case of `Nc1ccc2c(c1)Cc1cc(N)c(Br)cc1-2`, the IC50 is reported as 7.57 µM (active). For `CC(C)(C)N=C(S)Nc1ccc(Nc2ccccc2)cc1`, the IC50 was 103 µM (active). For `COc1ccccc1Nc1nnc(S)s1`, the IC50 was 57.1 µM (active). For `COc1cc(/C=C/CN2CCN(CCC(C)C)C(CCO)C2)ccc1O` (centres undefined), the IC50 was 101 µM (active). With `O=C(Oc1ccc2c(c1)OCO2)c1ccc(Br)c(S(=O)(=O)N2CCOCC2)c1` the IC50 was 76.1 µM (active). In the case of `COC(=O)c1[nH]c2ccccc2c1NC(=O)Oc1ccccc1`, the IC50 is reported as 15.9 µM (active). With `O=C(COc1ccccc1)N1CCN(CC2CC3C=CC2C3)CC1` (centres undefined) the IC50 was 175 µM (active). With `O=C(CNC(=O)c1cccnc1)N/N=C/c1ccc(O)cc1O` the IC50 was 97.4 µM (active).

Target: T1, Corticotropin-releasing factor receptor 2/Corticotropin-releasing factor-binding protein
Assay: activators of CRF receptor 2 with binding protein – uHTS hits, confirmation (AID 602473)
Format: functional
Conditions: read-out: EC50_Mean
For `COc1ccccc1N1CCN(C(=O)/C=C/c2cccs2)CC1`, the EC50 was > 53 µM (inactive). For `CNc1nc(NC)nc(NNC(=O)c2ccccc2)n1`, the EC50 was > 53 µM (inactive). With `Cc1ccccc1NS(=O)(=O)c1ccc(C(=O)N(C)CC(=O)Nc2ccccc2Br)cc1` the EC50 was > 53 µM (inactive). In the case of `Cc1ccc(C)c(NC(S)=NCCCN2CCOCC2)c1`, the EC50 is reported as > 53 µM (inactive). In the case of `CCn1c(C)nc2cc(C(=O)NN=Cc3ccc([N+](=O)[O-])cc3)ccc21`, the EC50 is reported as > 53 µM (inactive). For `CC(NC(=O)COC(=O)C12CC3CC(CC(Br)(C3)C1)C2)c1ccccc1` (centres undefined), the EC50 was > 53 µM (inactive). With `C/C(=N\NC(=O)c1ccc(NS(=O)(=O)c2cccs2)cc1)c1ccccc1` the EC50 was > 53 µM (inactive). For `O=C1CC(Nc2cc(O)nc(O)n2)C(=O)N1c1ccccc1Cl` (centres undefined), the EC50 was > 53 µM (inactive). With `C[C@H](NC(=O)[C@@H]1Cc2ccccc2CN1)C(=O)NC1CCCCC1` the EC50 was > 53 µM (inactive). With `O=C(c1ccc2snnc2c1)N1CCN(c2ccccn2)CC1` the EC50 was > 53 µM (inactive). For `Cc1ccc(C)c(C(C)NC(=O)c2ccccc2Br)c1` (centres undefined), the EC50 was > 53 µM (inactive).

Test system: not listed separately
Assay: Trypanosoma cruzi growth suppression in host cells – NIH3T3 host cells, beta-gal luminescence, confirmation (AID 2044);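 also: intracellular parasites grown in NIH/3T3 mouse fibroblasts as host cells; luminescent beta-galactosidase reporter signal from transgenic T. cruzi replicating inside host cells; inhibitors lower the luminescence signal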
Format: functional, cell-based
Conditions: not given
For `COc1ccc(C(=O)NCC(=O)N/N=C/c2ccc([N+](=O)[O-])s2)cc1OC`, the EC50 was 0.504 µM (active).

Target: T3, Streptokinase A (Streptococcus pyogenes serotype M1, UniProt P10520)
T3 sequence (P10520 whole entry): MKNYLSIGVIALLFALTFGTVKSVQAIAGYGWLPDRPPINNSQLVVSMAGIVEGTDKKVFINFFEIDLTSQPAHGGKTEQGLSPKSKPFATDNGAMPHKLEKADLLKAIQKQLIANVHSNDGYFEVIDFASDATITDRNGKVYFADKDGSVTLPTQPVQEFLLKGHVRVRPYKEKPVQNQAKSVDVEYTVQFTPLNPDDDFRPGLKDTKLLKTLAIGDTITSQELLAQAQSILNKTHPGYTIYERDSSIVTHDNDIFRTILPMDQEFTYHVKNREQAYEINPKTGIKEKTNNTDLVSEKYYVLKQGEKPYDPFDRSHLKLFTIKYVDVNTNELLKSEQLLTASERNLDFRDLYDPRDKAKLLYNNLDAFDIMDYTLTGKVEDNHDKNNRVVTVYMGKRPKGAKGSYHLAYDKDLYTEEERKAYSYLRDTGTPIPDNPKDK
Assay: viability-normalized secreted streptokinase activity reduction – plasminogen activation absorbance, OD405, dose response (AID 1914);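 also: secreted streptokinase activity via plasminogen activation per viability signal from cell pellet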
Format: functional, Streptococcus pyogenes M1 GAS
Conditions: not given
For `CCC(C)Nc1nc(N)c([N+](=O)[O-])c(Nc2cc(OC)ccc2OC)n1` (centres undefined), the EC50 was > 150 µM (not active).
